Key:
Type in all cases: cell-based, human
Aiolos = test: Intracellular Aiolos expression in stimulated anti-CD19 CAR-expressing T cells (flow cytometry MFI)
Method: (§1) T cell compositions containing anti-CD19 CAR-expressing T cells were generated from leukapheresis samples from three healthy human adult donors by a process including immunoaffinity-based selection of T cells (including CD4+ and CD8+ cells) from the samples, resulting in two compositions, enriched for CD8+ and CD4+ cells, respectively. The cells were incubated in the presence of (S)-3-[4-(4-morpholin-4-ylmethyl-benzyloxy)-1-oxo-1,3-dihydro-isoindol-2-yl]-piperidine-2,6-dione (Compound A) or 3-(5-amino-2-methyl-4-oxo-4H-quinazolin-3-yl)-piperidine-2,6-dione (Compound B), and expression of the transcription factors Ikaros and Aiolos was assessed. Cells of the enriched CD4+ and CD8+ compositions were separately activated with anti-CD3/anti-CD28 beads and subjected to lentiviral transduction with a vector encoding an anti-CD19 CAR. The anti-CD19 CAR contained an anti-CD19 scFv derived from a murine antibody (variable region derived from FMC63), an immunoglobulin-derived spacer, a transmembrane domain derived from CD28, a costimulatory region derived from 4-1BB, and a CD3-zeta intracellular signaling domain. The expression construct in the viral vector further contained sequences encoding a truncated receptor, which served as a surrogate marker for CAR expression, which was separated from the CAR sequence by a T2A ribosome skip sequence. Transduced populations then were separately incubated in the presence of stimulating reagents for cell expansion. Expanded CD8+ and CD4+ cells were formulated and cryopreserved separately and stored. The cryopreserved CD4+ and CD8+ anti-CD19 CAR-expressing cells from each donor were thawed, and combined at approximately a 1:1 CAR+CD4+:CD8+ ratio prior to use. Approximately 2.5×10^5 cells of the generated CAR+ T cell composition were stimulated overnight with 1 μg/ml of a CAR-specific anti-idiotypic antibody in the presence of 3-(5-amino-2-methyl-4-oxo-4H-quinazolin-3-yl)-piperidine-2,6-dione (Compound B) or (S)-3-[4-(4-morpholin-4-ylmethyl-benzyloxy)-1-oxo-1,3-dihydro-isoindol-2-yl]-piperidine-2,6-dione (Compound A) at concentrations ranging from 10 to 10000 nM or a vehicle control overnight at 37° C., 5% C02. Following overnight incubation, anti-CD19 CAR-expressing T cells were stained with antibodies and analyzed by flow cytometry to assess intracellular levels of Ikaros and Aiolos in CD4+ CAR+ or CD8+ CAR+ cells, as measured by median fluorescence intensity (MFI). Median fluorescence intensity (MFI) values for Ikaros and Aiolos were normalized and calculated as a percentage relative to vehicle control. […] The EC50 for reducing Aiolos and Ikaros expression was calculated as determined from the concentration of the inhibitor that reduced Aiolos or Ikaros MFI to 50% of its maximal MFI in the absence of the inhibitor.

Ikaros = test: Intracellular Ikaros expression in stimulated anti-CD19 CAR-expressing T cells (flow cytometry MFI)
Method: as §1

RL tumor spheroids = test: RL tumor spheroid model with anti-CD19 CAR T cells; settings: Day 4; 1 μM Compound B, 0.01 μM or 0.1 μM Compound A
Method: Cytolytic activity was also assessed in a spheroid model. About 5,000 RL cells were plated 48 hours prior to addition of 5,000 anti-CD19 CAR T cells (1:1 E:T ratio). Anti-CD19 CAR T cells were co-cultured with RL tumor spheroids, in the presence of Compound B (1 μM) or Compound A (0.001 μM, 0.01 μM or 0.1 μM)).

RL cells = test: Rescue of chronically stimulated CAR T cells cultured with RL cells; settings: Compound B 1 μM, Compound A 0.001, 0.01 or 0.1 μM
Method: The RL cells were further used to assess the ability of immunomodulatory compounds to rescue or reverse the anti-CD19 CAR T cells from exhaustion. Anti-CD19 CAR-expressing T cells were stimulated under conditions to induce chronic stimulation and then were subsequently treated (rescue) with Compound B (1 μM) or Compound A (0.001 μM, 0.01 μM or 0.1 μM), or a vehicle control. Long-term, chronic stimulation was carried out by stimulation of CAR T cells with 30 μg/mL plate-bound anti-idiotypic (anti-ID) antibody for 6 days, substantially as described in Example 3. After the chronic stimulation, the CAR-T cells were cultured with RL cells in the presence of Compound B or Compound A. Cytolytic activity was assessed over time by measuring tumor cell number in the culture.

[1] = overnight incubation, 1 μg/ml anti-idiotypic antibody, average of donors (range, 95% confidence interval)

Cc1nc2cccc(N)c2c(=O)n1C1CCC(=O)NC1=O (stereo not drawn) [Compound B, 3-(5-amino-2-methyl-4-oxo-4H-quinazolin-3-yl)-piperidine-2,6-dione, reference compound]
sensitivity of RL tumor spheroids to compound (RL tumor spheroids): sensitive
CAR T cell cytolytic activity, RL cell growth (RL cells): substantially improved
